Test results published in patent US6762189B1, “5-pyrimidinecarboxamide derivatives and the pharmaceutical compositions containing said derivatives” (Dong Wha Pharm. Ind. Co., Ltd., priority 1999, dated 2004).

Tests used:
HBV polymerase = target: T1, HBV polymerase (Hepatitis B virus genotype A2 subtype adw2, UniProt P03159); assay: In vitro reverse transcription activity of HBV polymerase (ELISA-type, DIG/biotin nucleotides); type: biochemical; details: read-out: Inhibition activity on HBV-RT (%); for inhibition at 0.01 µg/mL: 0.01 μg/ml test compound; for inhibition at 0.1 µg/mL: 0.1 μg/ml test compound; for inhibition at 1 µg/mL: 1 μg/ml test compound
T1 construct: made in house; host or cells: E. coli
Description: The following in vitro experiment was performed to determine the effect of the compounds of formula 1 on the activity of HBV polymerase during reverse transcription.
The present inventors submitted application for a patent concerning HBV polymerase genetically expressed in and separated from E. coli, the process of its preparation, and the method to measure the enzyme activities (KR 94-3918, KR 96-33998). In the present experiments HBV polymerase was used which had been expressed in E. coli as stated above.
The method used in the present invention to measure in vitro reverse transcribing activities of HBV polymerase is as follows. Basic principles are the same as for ELISA. Nucleotides with biotin or digoxigenin group attached are included as substrates and anti-DIG antibodies attached to peroxidase enzyme recognize the polymerized substrates.
To the wells coated with streptavidin, 20 μl of HBV polymerase, 20 μl of reaction mixture (10 μM each of DIG-UTP and Biotin-UTP, 46 mM Tris-HCl, 266 mM KCl, 27.5 mM MgCl2, 9.2 mM DTT substrate/primer hybrid), and 20 μl of test compound (added to 1, 0.1, and 0.01 μg/ml) were added and allowed to react a 22° C. for 15 hrs. During this reaction, HBV polymerase catalyzes DNA synthesis and digoxigenin and biotin attached to nucleotides form bonds with streptavidin coated on the bottom of wells. When the reaction was done, each well was washed with 250μl of cleaning buffer (pH 7.0) for 30 seconds, which was repeated five times to remove remaining impurities. 200 μl of anti-DIG-POD antibody was added to each well and allowed to react for 1 hr at 37° C., and the wells were washed with cleaning buffer to remove impurities. 200μl each of ABTS™, a substrate of peroxidase, was then added and allowed to react at room temperature for 30 min. Absorbance was measured at 405 nm using ELISA reader.
The percentage of reduction in HBV polymerase activities for reverse transcription was calculated using the group without test compound as a control and the results are shown in Table 3.

HBV = assay: Inhibition of HBV proliferation in HBV producing cell line HepG 2.2.15 (competitive PCR of culture supernatant); type: cell-based, Hepatitis B virus; details: Hepatitis B virus, HepG2.2.15, 168 h, HepG 2.2.15, one week, read-out: Inhibitory effect on the HBV proliferation, Inhibition activity on HBV-RT (%); for inhibition at 0.01 µg/mL: 0.01 μg/ml; for inhibition at 0.1 µg/mL: 0.1 μg/ml; for inhibition at 1 µg/mL: 1 μg/ml
Description: The following experiment was performed to determine inhibitory effects of compounds of formula on the proliferation of HBV producing cell line.
To test for antiviral effect, replication and proliferation of HBV were measured in HepG 2.2.15, a human liver cancer cell line.
The cell concentration was adjusted to 1×10^5 cells/ml and 1 ml was added to each well of a 24-well cell culture plate, which was then kept in a culture box for 3-4 days at 37° C. under 5% CO2 until cells grew sufficiently, changing culture medium everyday. When the cells matured sufficiently, the test compounds were added to the final concentrations of 0.01, 0.1, and 1 μg/ml. One week after the addition of test compounds, he culture solution was centrifuged at 5,000 rpm for 10 min. 25 μl of supernatant was transferred to a new tube and 5 μl of lysis solution [0.54N NaOH, 0.06% NP40] was added to each tube. After keeping the tube at 37° C. for 1 hr, 30 μl . of neutralizing solution [0.09NHCl, 0.1MTris-HCl, pH7.4] was added as a reaction solution for competitive polymerase chain reaction (PCR).
PCR was performed using genetic sequence of HBV core protein as a matrix. PCR reaction was carried out by adding 1 unit of Taq polymerase enzyme to 25 pmol of each primer, 250 μM dNTP, 5 μl of PCR reaction solution [0.54N NaOH, 0.06% NP40, 0.09N HCl, 0.1M Tris-HCl, pH 7.4].
DNA polymerized by PCR was electrophoresed on Agarose gel and quantitatively analyzed using an image analyzer (Gel Dcc 1000, Bio-Rad) in order to evaluate the effect of compounds of the present invention on the reduction of HBV proliferation.
3TC (lamivudine) was used as a positive control at the same concentrations as those of the test compounds. The percentage of reduction in HBV proliferation was calculated using the group without test compound as a control and the results are represented in Table 4.

[1] = target: T2, HIV reverse transcriptase (Human immunodeficiency virus type 1 group M subtype B, UniProt P04585); assay: In vitro HIV reverse transcriptase activity (non-radioactive reverse transcriptase assay kit); type: biochemical; details: for Inhibitory effect on the activities of HIV reverse transcriptase, Inhibition activity on HBV-RT (%): 0.1 μg/ml test compound; for Inhibition of HIV reverse transcriptase activity: 1 μg/ml test compound
T2 construct: activities of HIV reverse transcriptase; purchased Boehringer Mannheim
Description: The following in vitro experiments were done to determine the effect of compounds of formula 1 on the reduction of HIV enzyme activities in reverse transcription.
Non-radioactive reverse transcriptase assay kit (Boehringer Mannheim) was used in the measurement of in vitro transcriptase activities. 20 μl (40 ng) of HIV transcriptase and 20 μl of reaction mixture containing matrix-primer hybrid poly (A) oligo (dT) 15, DIG(digoxigenin)-dUTP, biotin-dUTP, and TTP were added to wells coated with streptavidin. Test compounds were also added at the final concentrations of 0.1 and 1 μg/ml and allowed to react at 37° C. for 1 hr. At this time, DNA is formed from RNA by the action of HIV transcriptase, forming bonds with streptavidin coated on the bottom of wells because of digoxigenin and biotin moieties attached to nucleotides.
When the reaction was completed, each well was washed with 250 μl. of cleaning buffer (pH 7.0) for 30 sec. five times to remove remaining impurities. 200 μl of anti-DIG-POD […] was added to each well, allowed to react at 37° C. for 1 hr and washed as above to remove impurities. 200 μl of ABTS™, a substrate for peroxidase, was added to each well and allowed to react at room temperature for 30min. Absorbance at 405 nm was then read for each solution using ELISA reader and used for quantitative determination of inhibitory effect on the HIV transcriptase activities. The percentage of reduction in the activities of HIV reverse transcriptase was calculated using the group without test compound as control and the results are represented in Table 5.

[2] = Cytotoxicity test on HepG2 cells (MTT); type: cell-based; details: human, read-out: Cytotoxity on HepG2, IC50 (50% Inhibitory Concentration)
HepG2 cells = assay: Cytotoxicity test on HepG2 cells (MTT); type: cell-based

T1 sequence (P03159 whole entry): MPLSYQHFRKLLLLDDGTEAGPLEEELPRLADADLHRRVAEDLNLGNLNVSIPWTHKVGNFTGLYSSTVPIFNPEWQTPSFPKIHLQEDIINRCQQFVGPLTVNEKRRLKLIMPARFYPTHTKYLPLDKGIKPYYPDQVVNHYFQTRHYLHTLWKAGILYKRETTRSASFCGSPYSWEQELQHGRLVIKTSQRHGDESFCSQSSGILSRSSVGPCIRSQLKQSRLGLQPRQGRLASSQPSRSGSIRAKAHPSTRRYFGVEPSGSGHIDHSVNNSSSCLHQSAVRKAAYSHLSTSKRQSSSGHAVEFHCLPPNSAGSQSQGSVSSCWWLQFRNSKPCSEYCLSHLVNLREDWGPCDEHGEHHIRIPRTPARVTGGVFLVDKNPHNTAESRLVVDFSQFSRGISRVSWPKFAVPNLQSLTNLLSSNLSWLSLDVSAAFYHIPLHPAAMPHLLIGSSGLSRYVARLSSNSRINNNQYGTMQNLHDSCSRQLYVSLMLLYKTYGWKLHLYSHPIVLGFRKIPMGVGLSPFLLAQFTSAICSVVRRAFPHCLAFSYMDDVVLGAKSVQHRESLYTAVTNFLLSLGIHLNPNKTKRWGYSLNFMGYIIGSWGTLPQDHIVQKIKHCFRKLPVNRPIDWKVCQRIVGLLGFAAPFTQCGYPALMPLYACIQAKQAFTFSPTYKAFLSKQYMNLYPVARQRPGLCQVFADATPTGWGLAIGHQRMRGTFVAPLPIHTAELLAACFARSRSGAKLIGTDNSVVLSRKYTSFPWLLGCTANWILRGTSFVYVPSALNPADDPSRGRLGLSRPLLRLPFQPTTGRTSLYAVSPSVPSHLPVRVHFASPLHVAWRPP

Question: With `CNC(=O)c1cnc(SC)nc1Nc1ccc2[nH]ncc2c1` [Example 3, 4-(1H-5-Indazolylamino)-N-methyl-2-methylthio-5-pyrimidine carboxamide] as the compound, how does the inhibition at 0.01 µg/mL (HBV polymerase) read?
Answer: 34%

Question: And the inhibition at 0.1 µg/mL (HBV polymerase)?
Answer: 59%

Question: What about the inhibition at 1 µg/mL (HBV polymerase) of the same compound?
Answer: 88%

Question: What about the inhibition at 0.01 µg/mL (HBV) of the same compound?
Answer: 15%

Question: And the inhibition at 0.1 µg/mL (HBV)?
Answer: 42%

Question: And the inhibition at 1 µg/mL (HBV)?
Answer: 75%

Question: What about the “Inhibitory effect on the activities of HIV reverse transcriptase, Inhibition activity on HBV-RT (%)” value (“Inhibitory effect on the activities … (%)” for short) [1] of the same compound?
Answer: 48%

Question: What about the “Inhibition of HIV reverse transcriptase activity” value [1] of the same compound?
Answer: 62%

Question: What about the IC50 [2] of the same compound?
Answer: > 100 µg/mL

Question: And the “Cytotoxity on HepG2, MCD (Minimal Cytotoxic Concentration)” value (“Cytotoxity on HepG2, MCD” for short) (HepG2 cells)?
Answer: 100 µg/mL

Question: Which inhibition at 0.01 µg/mL (HBV polymerase) does the source give for `CNC(=O)c1cnc(SC)nc1Nc1ccc2cn[nH]c2c1` [Example 4, 4-(1H-6-Indazolylamino)-N-methyl-2-methylthio-5-pyrimidinecarboxamide] here?
Answer: 52%

Question: What about the inhibition at 0.1 µg/mL (HBV polymerase) of the same compound?
Answer: 77%

Question: And the inhibition at 1 µg/mL (HBV polymerase)?
Answer: 96%

Question: And the inhibition at 0.01 µg/mL (HBV)?
Answer: 32%

Question: What about the inhibition at 0.1 µg/mL (HBV) of the same compound?
Answer: 70%

Question: What about the inhibition at 1 µg/mL (HBV) of the same compound?
Answer: 94%

Question: And the “Inhibitory effect on the activities … (%)” value [1]?
Answer: 42%

Question: What about the “Inhibition of HIV reverse transcriptase activity” value [1] of the same compound?
Answer: 70%

Question: What about the IC50 [2] of the same compound?
Answer: > 100 µg/mL

Question: And the “Cytotoxity on HepG2, MCD” value (HepG2 cells)?
Answer: 100 µg/mL

Question: Which inhibition at 0.01 µg/mL (HBV polymerase) does the source give for `CSc1ncc(C(=O)NCCO)c(Nc2ccc3cn[nH]c3c2)n1` [Example 8, N-(2-hydroxyethyl)-4-(1H-6-indazolylamino)-2-methylthio-5-pyrimidine Carboxamide] here?
Answer: 50%

Question: And the inhibition at 0.1 µg/mL (HBV polymerase)?
Answer: 68%

Question: What about the inhibition at 1 µg/mL (HBV polymerase) of the same compound?
Answer: 95%

Question: And the inhibition at 0.01 µg/mL (HBV)?
Answer: 40%

Question: What about the inhibition at 0.1 µg/mL (HBV) of the same compound?
Answer: 72%

Question: What about the inhibition at 1 µg/mL (HBV) of the same compound?
Answer: 88%

Question: What about the IC50 [2] of the same compound?
Answer: > 100 µg/mL

Question: What about the “Cytotoxity on HepG2, MCD” value (HepG2 cells) of the same compound?
Answer: 100 µg/mL

Question: For `CSc1ncc(C(=O)NCCN2CCOCC2)c(Nc2ccc3[nH]ncc3c2)n1` [Example 19, 4-(1H-5-indazolylamino)-2-methylthio-N-[2-(4-morpholinyl)ethyl]-5-pyrimidinecarboxamide], which inhibition at 0.01 µg/mL (HBV polymerase) is on record?
Answer: 10%

Question: What about the inhibition at 0.1 µg/mL (HBV polymerase) of the same compound?
Answer: 39%

Question: What about the inhibition at 1 µg/mL (HBV polymerase) of the same compound?
Answer: 64%

Question: What about the “Inhibitory effect on the activities … (%)” value [1] of the same compound?
Answer: 48%

Question: And the “Inhibition of HIV reverse transcriptase activity” value [1]?
Answer: 75%

Question: And the melting point?
Answer: 113 to 117 °C

Question: For `CSc1ncc(C(=O)NCCCn2ccnc2)c(Nc2ccc3[nH]ncc3c2)n1` [Example 29, N-[3-(1H-1-imidazolyl)propyl]-4-(1H-5-indazolylamino)-2-methylthio-5-pyrimidinecarboxamide], which inhibition at 0.01 µg/mL (HBV polymerase) is on record?
Answer: 41%

Question: What about the inhibition at 0.1 µg/mL (HBV polymerase) of the same compound?
Answer: 56%

Question: What about the inhibition at 1 µg/mL (HBV polymerase) of the same compound?
Answer: 80%

Question: What about the “Inhibitory effect on the activities … (%)” value [1] of the same compound?
Answer: 44%

Question: And the “Inhibition of HIV reverse transcriptase activity” value [1]?
Answer: 72%

Question: What about the melting point of the same compound?
Answer: 121 to 125 °C

Question: Which inhibition at 0.01 µg/mL (HBV polymerase) does the source give for `CSc1ncc(C(=O)NCCN(C)C)c(Nc2ccc3cn[nH]c3c2)n1` [Example 18, N-[2-(dimethylamino)ethyl]-4-(1H-6-indazolylamino)-2-methylthio-5-pyrimidinecarboxamide] here?
Answer: 54%

Question: And the inhibition at 0.1 µg/mL (HBV polymerase)?
Answer: 66%

Question: And the inhibition at 1 µg/mL (HBV polymerase)?
Answer: 92%

Question: What about the inhibition at 0.01 µg/mL (HBV) of the same compound?
Answer: 43%

Question: And the inhibition at 0.1 µg/mL (HBV)?
Answer: 57%

Question: What about the inhibition at 1 µg/mL (HBV) of the same compound?
Answer: 88%

Question: And the “Inhibitory effect on the activities … (%)” value [1]?
Answer: 51%

Question: And the “Inhibition of HIV reverse transcriptase activity” value [1]?
Answer: 77%

Question: What about the melting point of the same compound?
Answer: 162 to 167 °C

Question: With `CSc1ncc(C(=O)N(C)C)c(Nc2ccc3cn[nH]c3c2)n1` [Example 16, N,N-dimethyl-4-(1H-6-indazolylamino)-2-methylthio-5-pyrimidinecarboxamide] as the compound, how does the inhibition at 0.01 µg/mL (HBV polymerase) read?
Answer: 10%

Question: And the inhibition at 0.1 µg/mL (HBV polymerase)?
Answer: 30%

Question: And the inhibition at 1 µg/mL (HBV polymerase)?
Answer: 54%

Question: What about the “Inhibitory effect on the activities … (%)” value [1] of the same compound?
Answer: 53%

Question: And the “Inhibition of HIV reverse transcriptase activity” value [1]?
Answer: 81%

Question: What about the melting point of the same compound?
Answer: 164 to 166 °C
